Test system: patients with type 2 diabetes at high vascular risk
Assay: Cardiovascular and Renal Outcomes Trial: linagliptin 5 mg once daily vs placebo on top of standard of care
Assay type: in vivo
Conditions: for Hazard ratio for hospitalised heart failure: vs placebo
Procedure: The effect of linagliptin on cardiovascular risk in adult patients with type 2 diabetes mellitus and with increased CV risk evidenced by a history of established macrovascular or renal disease (e.g. as defined herein) was evaluated in a multi-center, multi-national, randomized, double-blind parallel group trial. The trial compared the risk of experiencing a major adverse cardiovascular event (MACE) between linagliptin and placebo when these were added to and used concomitantly with standard of care treatments for diabetes (HbA1c), cardiovascular risk factors and renal disease.
The primary endpoint in this trial was the time to first occurrence of three point (3P) MACE. A major adverse cardiac event was defined as a cardiovascular death or a nonfatal myocardial infarction (MI) or a nonfatal stroke. The statistical analysis plan tested for non-inferiority for the occurrence of (3P) MACE. […] The secondary endpoint was a renal composite, defined as renal death or sustained end stage renal disease or sustained decrease of 40% or more in eGFR.
Type 2 diabetes patient with insufficient glycemic control (naïve or pre-treated with any antidiabetic background medication, excluding treatment with GLP-1 receptor agonists, DPP-4inhibitors or SGLT-2 inhibitors if ≥consecutive 7 days, e.g. having HbA1c 6.5-10%), and high risk of cardiovascular events, e.g. defined by: • albuminuria (micro or macro) and previous macrovascular disease: e.g. defined according to Condition I as indicated below; • and/or • impaired renal function: e.g. as defined according to Condition II as indicated below;
Background and aims: People with type 2 diabetes (T2D) are at increased risk for hospitalization for heart failure (hHF), particularly in the setting of concomitant cardiovascular (CV) and/or kidney disease. […] Here we present analyses of HF outcomes with the DPP-4 inhibitor linagliptin (LINA) vs. placebo (PBO) from a Cardiovascular and Renal Outcomes Trial assessing cardiovascular safety and renal microvascular outcome in patients with type 2 diabetes at high vascular risk, a large CV outcomes trial that enrolled participants with T2D at high risk for hHF due to concomitant CV and/or chronic kidney disease. Materials and methods: People with T2D and concomitant CV and/or kidney disease were randomized to receive LINA 5 mg, or PBO once daily (1:1), on top of standard of care. All hHF, CV outcomes, and deaths were centrally adjudicated, with individual and composite HF-related outcomes analyses comparing LINA vs. placebo. Investigator-reported HF-related adverse events, whether or not confirmed by adjudication, were also analyzed. A Cox proportional hazards model adjusting for region and history of HF was used for analyses of first events. Recurrent hHF events were analyzed using a negative binomial model.
Methods: The present Cardiovascular and Renal Outcomes Trial randomized people with T2D and i) concomitant CV disease with UACR >30 mg/g or ii) prevalent CKD (i.e. GFR <45 ml/min/1.73m2 and/or UACR >200 mg/g) to receive the DPP-4 inhibitor linagliptin (5 mg) or placebo once daily in a double-blind fashion. The primary CV endpoint was 3P-MACE, with a key secondary kidney endpoint (adjudicated ESKD, renal death, or sustained ≥40% decrease in eGFR from baseline) and other renal outcomes (including albuminuria and eGFR slope) also assessed. Subgroups were assessed by baseline kidney function (eGFR ≥/<45 ml/min/1.73m2and eGFR ≥/<30, 45 or 60 ml/min/1.73m2).
Adults with type 2 diabetes, HbA1c 6.5-10.0% inclusive, and high CV risk were eligible for inclusion. […] Macrovascular disease eligibility criteria was based on documented and confirmed history of myocardial infarction, coronary artery disease, stroke, carotid artery disease, or peripheral artery disease. Participants with end-stage kidney disease (ESKD), defined as eGFR <15 or requiring maintenance dialysis, were excluded.

[1] = Urine albumin-to-creatinine ratio 30 to 300 mg/g
[2] = Urine albumin-to-creatinine ratio <30 mg/g
[3] = Urine albumin-to-creatinine ratio >300 mg/g

`CC#CCn1c(N2CCC[C@@H](N)C2)nc2c1c(=O)n(Cc1nc(C)c3ccccc3n1)c(=O)n2C` [Linagliptin, 1-[(4-methyl-quinazolin-2-yl)methyl]-3-methyl-7-(2-butyn-1-yl)-8-(3-(R)-amino-piperidin-1-yl)-xanthine] was tested, and the “3-point MACE: hazard ratio vs placebo” value (Race Other) was 1.86, the “3-point MACE: patients with event/patients analyzed” value (Race Other) was 23/166 and the “Key secondary kidney outcome: hazard ratio vs placebo” value (Race Other) was 1.16. The “Key secondary kidney outcome: patients with event/patients analyzed” value (Race Other) was 23/166, the “Patients with event/patients analysed, hospitalised heart failure” value (“Patients with event/patients analysed” for short) (Race Other) was 6/166 and the “3-point MACE: hazard ratio vs placebo” value (Race White) was 0.97. For the same compound, the “3-point MACE: patients with event/patients analyzed” value (Race White) was 340/2827, the “Key secondary kidney outcome: hazard ratio vs placebo” value (Race White) was 1.03 and the “Key secondary kidney outcome: patients with event/patients analyzed” value (Race White) was 237/2827. For the same compound, the “Patients with event/patients analysed” value (Race White) was 174/2827, the “3-point MACE: hazard ratio vs placebo” value (Region Asia) was 0.90 and the “3-point MACE: patients with event/patients analyzed” value (Region Asia) was 29/272. The “Key secondary kidney outcome: hazard ratio vs placebo” value (Region Asia) was 0.96, the “Key secondary kidney outcome: patients with event/patients analyzed” value (Region Asia) was 29/272 and the “Patients with event/patients analysed” value (Region Asia) was 12/272. The “Hazard ratio for hospitalised heart failure” value (Region Asia) was 0.47, the “3-point MACE: hazard ratio vs placebo” value (Region Europe + South Africa) was 0.92 and the “3-point MACE: patients with event/patients analyzed” value (Region Europe + South Africa) was 182/1473. For the same compound, the “Key secondary kidney outcome: hazard ratio vs placebo” value (Region Europe + South Africa) was 0.96, the “Key secondary kidney outcome: patients with event/patients analyzed” value (Region Europe + South Africa) was 98/1473 and the “Patients with event/patients analysed” value (Region Europe + South Africa) was 101/1473. For the same compound, the “Hazard ratio for hospitalised heart failure” value (Region Europe + South Africa) was 1.13, the “3-point MACE: hazard ratio vs placebo” value (Region Latin America) was 1.10 and the “3-point MACE: patients with event/patients analyzed” value (Region Latin America) was 132/1156. For the same compound, the “Key secondary kidney outcome: hazard ratio vs placebo” value (Region Latin America) was 1.07, the “Key secondary kidney outcome: patients with event/patients analyzed” value (Region Latin America) was 149/1156 and the “Patients with event/patients analysed” value (Region Latin America) was 54/1156. The “Hazard ratio for hospitalised heart failure” value (Region Latin America) was 0.99, the “3-point MACE: hazard ratio vs placebo” value (Region North America) was 1.25 and the “3-point MACE: patients with event/patients analyzed” value (Region North America) was 91/593. For the same compound, the “Key secondary kidney outcome: hazard ratio vs placebo” value (Region North America) was 1.19, the “Key secondary kidney outcome: patients with event/patients analyzed” value (Region North America) was 51/593 and the “Patients with event/patients analysed” value (Region North America) was 42/593. For the same compound, the “Hazard ratio for hospitalised heart failure” value (Region North America) was 0.65, the “Key secondary kidney outcome: hazard ratio vs placebo” value (SBP 140 mmHg or DBP ≥90 mmHg) was 1.08 and the “Key secondary kidney outcome: patients with event/patients analyzed” value (SBP 140 mmHg or DBP ≥90 mmHg) was 222/1800. For the same compound, the “3-point MACE: hazard ratio vs placebo” value (SBP <140 mmHg and DBP <90 mmHg) was 0.93, the “3-point MACE: patients with event/patients analyzed” value (SBP <140 mmHg and DBP <90 mmHg) was 185/1694 and the “Key secondary kidney outcome: hazard ratio vs placebo” value (SBP <140 mmHg and DBP <90 mmHg) was 0.99. For the same compound, the “Key secondary kidney outcome: patients with event/patients analyzed” value (SBP <140 mmHg and DBP <90 mmHg) was 105/1694, the “3-point MACE: hazard ratio vs placebo” value (SBP ≥140 mmHg or DBP ≥90 mmHg) was 1.11 and the “3-point MACE: patients with event/patients analyzed” value (SBP ≥140 mmHg or DBP ≥90 mmHg) was 249/1800. For the same compound, the “3-point MACE: hazard ratio vs placebo” value (Sulfonylurea No) was 0.98, the “3-point MACE: patients with event/patients analyzed” value (Sulfonylurea No) was 315/2392 and the “Key secondary kidney outcome: hazard ratio vs placebo” value (Sulfonylurea No) was 1.10. The “Key secondary kidney outcome: patients with event/patients analyzed” value (Sulfonylurea No) was 252/2392, the “Patients with event/patients analysed” value (Sulfonylurea No) was 166/2392 and the “Hazard ratio for hospitalised heart failure” value (Sulfonylurea No) was 0.92. For the same compound, the “3-point MACE: hazard ratio vs placebo” value (Sulfonylurea Yes) was 1.15, the “3-point MACE: patients with event/patients analyzed” value (Sulfonylurea Yes) was 119/1102 and the “Key secondary kidney outcome: hazard ratio vs placebo” value (Sulfonylurea Yes) was 0.87. The “Key secondary kidney outcome: patients with event/patients analyzed” value (Sulfonylurea Yes) was 75/1102, the “Patients with event/patients analysed” value (Sulfonylurea Yes) was 43/1102 and the “Hazard ratio for hospitalised heart failure” value (Sulfonylurea Yes) was 0.82. The “Composite microvascular endpoint: patients, %” value (Table 6) was “(36.3) %”, the “ESKD (component of kidney composite outcome): %” value (Table 6) was “(0.03) %” and the “ESKD (component of kidney composite outcome): no.” value (Table 6) was 1. For the same compound, the “Renal death, sustained ESKD, or sustained decrease of 50% or more in eGFR from baseline: %” value (Table 6) was “(7.5) %”, the “Renal death, sustained ESKD, or sustained decrease of 50% or more in eGFR from baseline: no.” value (Table 6) was 263 and the “Sustained decrease of 40% or more in eGFR (component of kidney composite outcome): %” value (Table 6) was “(1.8) %”. The “Sustained decrease of 40% or more in eGFR (component of kidney composite outcome): no.” value (Table 6) was 63, the “Composite microvascular outcome: number of patients, % of n = 3494” value (Table 9) was 22.5% and the “3-point MACE: hazard ratio vs placebo” value (UACR 30 to 300 mg/g) was 0.95. For the same compound, the “3-point MACE: patients with event/patients analyzed” value (UACR 30 to 300 mg/g) was 158/1463, the “Key secondary kidney outcome: hazard ratio vs placebo” value (UACR 30 to 300 mg/g) was 1.30 and the “Key secondary kidney outcome: patients with event/patients analyzed” value (UACR 30 to 300 mg/g) was 53/1463. For the same compound, the “3-point MACE: hazard ratio vs placebo” value (UACR <30 mg/g) was 1.10, the “3-point MACE: patients with event/patients analyzed” value (UACR <30 mg/g) was 67/696 and the “Key secondary kidney outcome: hazard ratio vs placebo” value (UACR <30 mg/g) was 1.46. For the same compound, the “Key secondary kidney outcome: patients with event/patients analyzed” value (UACR <30 mg/g) was 22/696, the “3-point MACE: hazard ratio vs placebo” value (UACR >300 mg/g) was 1.06 and the “3-point MACE: patients with event/patients analyzed” value (UACR >300 mg/g) was 208/1333. For the same compound, the “Key secondary kidney outcome: hazard ratio vs placebo” value (UACR >300 mg/g) was 0.97, the “Key secondary kidney outcome: patients with event/patients analyzed” value (UACR >300 mg/g) was 252/1333 and the “Patients with event/patients analysed” value [1] was 72/1463. For the same compound, the “Hazard ratio for hospitalised heart failure” value [1] was 0.86, the “Patients with event/patients analysed” value [2] was 26/696 and the “Hazard ratio for hospitalised heart failure” value [2] was 0.76. The “Patients with event/patients analysed” value [3] was 111/1333, the “Hazard ratio for hospitalised heart failure” value [3] was 0.99 and the “HbA1c vs PBO across all GFR categories, in words” value (across GFR categories) was “reduced significantly”. The “Risk for hypoglycemia vs PBO across all GFR categories, in words” value (across GFR categories) was “without increased risk for hypoglycemia”, the “Progression of albuminuria across all eGFR categories, in words” value (across eGFR categories) was “consistent beneficial effect” and the “3P-MACE: incidence rate per 1000 PY” value (all patients) was 57.7 per 1000 patient years.
